Measured values reported in patent EP1243268A1, “MEDICINAL COMPOSITION” (Nippon Shinyaku Co., Ltd., priority 1999, dated 2001).

Experiments:
mesangial cells = assay: Effect on anti-Thy-1 antibody nephritis in rats (count of cells in the glomeruli); format: in vivo; conditions: rats with anti-Thy-1 antibody nephritis; suspension (1mg/1ml) orally, 1 ml/100g of body weight twice a day for 7 days; kidneys removed on day 8; number of cells per glomerulus, mean ± standard error; Control 104.3±3.3, intact animal 67.25; *: P<0.05, **: P<0.01 (Dunnett's test)
Excerpt: Anti-Thy-1 antibody-induced nephritis is a model of glomerulonephritis constructed by utilizing the reaction between the Thy-1 antigen occurring as a membrane protein of mesangial cells and the antibody to the antigen. In this model, injuries to mesangial cells and lesions associated with mesangial cell proliferation are found. While a large majority of types of chronic glomerulonephritis in human are those of proliferative glomerulonephritis which show mesangial cell proliferation and increases in mesangial matrix as cardinal pathologic features, anti-Thy-1 antibody nephritis is regarded as a model of this human proliferative glomerulonephritis, particularly mesangial proliferative nephritis [Ishizaki et al., Acta. Pathol. Jpn., 36, 1191 (1986)].
Rats were used in groups of 7.
Preparation of the antibody was carried out in accordance with the method of Ishizaki et al. referred to above. Thus, an adjuvant suspension of rat thymocytes was prepared and subcutaneously administered to rabbits for immunization. After two booster doses, the blood was collected and the serum separated was subjected to inactivation and absorption to provide an antiserum (anti-Thy-1 antibody).
A predetermined amount of the antiserum was injected intravenously from the tail vein of rats to induce nephritis. Starting the following day after injection, a suspension (1mg/1ml) of the test drug was administered orally at a dosage of 1 ml/100g of body weight of rat twice a day for 7 days. On day 8 following the beginning of administration, the animals were sacrificed and the kidneys were removed. The kidney was fixed in Carnoy's fixative and, in the routine manner, paraffin sections were prepared and stained with hematoxyline stain for microscopy. For histopathological evaluation, the number of cells in the glomeruli (mainly mesangial cells) in each tissue preparation was counted under a light microscope. Statistical analysis was performed by Dunnett's test.

mice = assay: Acute toxicity; format: in vivo; conditions: suspension orally at 300 mg/kg, general condition observed for a week after administration
Experimental: Each of the compounds in Preparation Examples 1, 5, 6, 33, 34, 39, and 48 was administered.

Row | Structure (SMILES) | Number of mesangial cells a) (mesangial cells) | deaths (mice)
1 | Cc1ccc2c(c1)c(C(=O)N1CCN(c3ccccn3)CC1)c(-c1ccccc1)n2C.Cl [Preparation Example 1, 1-(1,5-Dimethyl-2-phenylindol-3-ylcarbonyl)-4-(2-pyridyl)piperazine hydrochloride] | 90.3±2.2* | No deaths were observed
2 | Cn1c(-c2ccccc2)c(C(=O)N2CC[N+]([O-])(c3ccccn3)CC2)c2ccccc21 [Preparation Example 5, 1-(1-Methyl-2-phenylindol-3-ylcarbonyl)-4-(2-pyridyl)piperazine-4-oxide] |  | No deaths were observed
3 | Cl.Cn1c(-c2ccccc2)c(C(=O)N2CCN(c3ccccn3)CC2)c2ccccc21 [Preparation Example 6, 1-(1-Methyl-2-phenylindol-3-ylcarbonyl)-4-(2-pyridyl)piperazine hydrochloride] |  | No deaths were observed
4 | Cc1ccc2c(c1)c(C(=O)N1CCN(c3cccnc3)CC1)c(-c1ccccc1)n2C.Cl.Cl [Preparation Example 33, 1-(1,5-Dimethyl-2-phenylindol-3-ylcarbonyl)-4-(3-pyridyl)piperazine dihydrochloride] | 88.5±3.7** | No deaths were observed
5 | Cc1ccc2c(c1)c(C(=O)N1CCN(c3ccncc3)CC1)c(-c1ccccc1)n2C.Cl [Preparation Example 34, 1-(1,5-Dimethyl-2-phenylindol-3-ylcarbonyl)-4-(4-pyridyl)piperazine hydrochloride] | 87.1±5.7** | No deaths were observed
6 | Cc1cc2c(C(=O)N3CCN(c4ccncc4)CC3)c(-c3ccccc3)n(C)c2cc1C.Cl [Preparation Example 39, 1-(1,5,6-Trimethyl-2-phenylindol-3-ylcarbonyl)-4-(4-pyridyl)piperazine hydrochloride] |  | No deaths were observed
7 | Cl.Cn1c(-c2ccccc2)c(C(=O)N2CCN(c3ccc([N+](=O)[O-])cn3)CC2)c2ccccc21 [Preparation Example 48, 1-(1-Methyl-2-phenylindol-3-ylcarbonyl)-4-(5-nitro-2-pyridyl)piperazine hydrochloride] | 89.2±3.1* | No deaths were observed
